Assay results published in ChEMBL document CHEMBL5614374, “Novel carbazole-oxadiazole derivatives as anti-α-glucosidase and anti-α-amylase agents: Design, synthesis, molecular docking, and biological evaluation” (Eur J Med Chem, 2024).
The source made the active and inactive calls. The calls are words filed in the database; no cut-off is given here.

Key:
Mus musculus [1] = test: Reduction in blood glucose concentration in male Kunming mouse assessed as decrease in AUC at 20 mg/kg, IG preadministered for 40 mins followed by saccharose addition and measured after 150 mins by sucrose loading test relative to control; format: functional; parameters: scale not given: the % may be the effect or the level left; details: time 190 min, 3.167 h
Mus musculus [2] = test: Reduction in blood glucose concentration in male Kunming mouse at 20 mg/kg, IG preadministered for 40 mins followed by saccharose addition and measured after 30 mins by sucrose loading test; format: functional, organism-based; details: time 70.0 min
Alpha-amylase [3] = target: T1, Alpha-amylase (Sus scrofa domesticus, UniProt Q7M328); test: Inhibition of hog pancreatic alpha-amylase using soluble starch as substrate preincubated for 10 mins followed by substrate addition and measured after 15 mins by absorbance based analysis
T1 sequence (Q7M328 whole entry): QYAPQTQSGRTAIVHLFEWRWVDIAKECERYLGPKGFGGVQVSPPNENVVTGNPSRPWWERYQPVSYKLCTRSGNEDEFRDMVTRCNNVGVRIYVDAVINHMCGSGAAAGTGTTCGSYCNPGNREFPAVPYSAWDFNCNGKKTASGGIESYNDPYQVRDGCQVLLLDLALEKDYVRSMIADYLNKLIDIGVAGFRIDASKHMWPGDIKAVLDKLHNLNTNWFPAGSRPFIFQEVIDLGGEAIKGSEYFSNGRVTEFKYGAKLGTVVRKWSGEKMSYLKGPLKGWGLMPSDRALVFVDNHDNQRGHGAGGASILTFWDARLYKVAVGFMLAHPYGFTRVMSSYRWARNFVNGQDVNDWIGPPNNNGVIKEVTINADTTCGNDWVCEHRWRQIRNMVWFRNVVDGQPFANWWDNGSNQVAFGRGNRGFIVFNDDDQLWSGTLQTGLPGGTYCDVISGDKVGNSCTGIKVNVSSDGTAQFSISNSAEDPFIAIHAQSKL

Alpha-glucosidase [4] = target: T2, Alpha-glucosidase (Saccharomyces cerevisiae S288c, UniProt P53341+P38158+P07265); test: Inhibition of Saccharomyces cerevisiae alpha-glucosidase using p-nitrophenyl-alpha-D-glucopyranoside as substrate preincubated for 0.25 hrs followed by substrate addition and measured after 0.5 hrs by spectrophotometric analysis; format: protein assay
Alpha-amylase [5] = target: T1, Alpha-amylase; test: Inhibition of hog pancreatic alpha-amylase using soluble starch as substrate assessed as inhibition constant of free alpha-amylase preincubated for 10 mins followed by substrate addition and measured after 15 mins by Lineweaver-Burk plot analysis
[6] = target: Alpha amylase (Homo sapiens) (UniProt P0DUB6); test: Inhibition of alpha-amylase (unknown origin) assessed as increase in enzyme particle thickness at 50 uM incubated for 30 mins by AFM imaging analysis; format: protein assay
Chain of Alpha amylase (Homo sapiens) (P0DUB6 whole entry, looked up): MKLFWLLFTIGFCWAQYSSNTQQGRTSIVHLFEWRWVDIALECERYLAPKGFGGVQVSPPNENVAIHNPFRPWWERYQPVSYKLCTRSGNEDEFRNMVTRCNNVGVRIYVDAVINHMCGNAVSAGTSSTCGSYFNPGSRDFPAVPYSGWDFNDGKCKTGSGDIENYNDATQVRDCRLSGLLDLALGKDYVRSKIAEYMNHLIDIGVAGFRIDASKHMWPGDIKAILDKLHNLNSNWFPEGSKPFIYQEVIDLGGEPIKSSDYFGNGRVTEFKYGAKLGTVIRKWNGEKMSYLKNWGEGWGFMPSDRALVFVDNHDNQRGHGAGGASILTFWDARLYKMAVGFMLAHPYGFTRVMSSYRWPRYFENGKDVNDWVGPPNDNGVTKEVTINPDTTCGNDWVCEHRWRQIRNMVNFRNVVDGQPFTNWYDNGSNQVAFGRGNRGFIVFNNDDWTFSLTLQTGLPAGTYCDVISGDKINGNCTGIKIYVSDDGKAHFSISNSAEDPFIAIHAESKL

[7] = Cytotoxicity against HEK293 cells incubated for 1 day by MTT assay; format: toxicity, cell-based; details: human
Alpha-amylase [8] = target: T1, Alpha-amylase; test: Inhibition of hog pancreatic alpha-amylase using soluble starch as substrate assessed as inhibition constant of enzyme-substrate complex preincubated for 10 mins followed by substrate addition and measured after 15 mins by Lineweaver-Burk plot analysis
[9] = target: Alpha amylase (Homo sapiens) (UniProt P0DUB6); test: Inhibition of alpha-amylase (unknown origin) assessed as increase in enzyme particle size at 50 uM incubated for 30 mins by AFM imaging analysis; format: protein assay
[10] = Cytotoxicity against HEK293 cells assessed as cell viability at 60 uM incubated for 1 day by MTT assay relative to control; format: toxicity, cell-based; details: human, read-out: Activity
Alpha-glucosidase [11] = target: T2, Alpha-glucosidase; test: Inhibition of Saccharomyces cerevisiae alpha-glucosidase using p-nitrophenyl-alpha-D-glucopyranoside as substrate assessed as inhibition constant of free alpha-glucosidase incubated for 7 mins by spectrophotometer based Lineweaver-Burk plot analysis; format: protein assay
[12] = target: T3, Alpha-amylase (Sus scrofa domesticus) (UniProt Q7M328); test: Mixed-type inhibition of hog pancreatic alpha-amylase using soluble starch as substrate upto 35 uM preincubated for 10 mins followed by substrate addition and measured after 15 mins by Lineweaver-Burk plot analysis; details: time 25.0 min
T3 sequence (whole entry): T1 sequence (Q7M328 whole entry)

Row | IC50 (Alpha-amylase [3]) [µM] | IC50 (Alpha-glucosidase [4]) [µM] | SMILES | also measured
1 |  |  | C[C@H]1O[C@H](O[C@H]2[C@H](O)[C@@H](O)[C@@H](O[C@H]3[C@H](O)[C@@H](O)C(O)O[C@@H]3CO)O[C@@H]2CO)[C@H](O)[C@@H](O)[C@@H]1N[C@H]1C=C(CO)[C@@H](O)[C@H](O)[C@H]1O (stereo partly specified) [ACARBOSE] | Activity (Mus musculus [1]): 28.57%; Activity (Mus musculus [2]): Active
2 | 74.8 | 39.52 | O=C(CSc1nnc(CCn2c3ccccc3c3ccccc32)o1)Nc1ccc(Oc2ccccc2)cc1 | 
3 | 126 | 80.64 | Cc1ccc(NC(=O)CSc2nnc(CCn3c4ccccc4c4ccccc43)o2)cc1 | 
4 | 120 | > 300 | Cc1ccc(NC(=O)CSc2nnc(CCn3c4ccccc4c4ccccc43)o2)c(C)c1 | 
5 | 86.3 | 22.22 | O=C(CSc1nnc(CCn2c3ccccc3c3ccccc32)o1)Nc1ccc([N+](=O)[O-])cc1 | 
6 | 45.5 | 27.73 | O=C(CSc1nnc(CCn2c3ccccc3c3ccccc32)o1)Nc1ccc(F)cc1 | Activity (Mus musculus [1]): 10.66%; Activity (Mus musculus [2]): Active; Ki (Alpha-amylase [5]): 45.1 µM; inhibition [6]: Active; IC50 at 1 day [7]: 181 µM; Ki (Alpha-amylase [8]): 63.3 µM; inhibition [9]: Active; viability at 24 h, 60 µM [10]: 90.3%; Ki (Alpha-glucosidase [11]): 22.04 µM; inhibition [12]: Active
7 | 64.6 | 85.95 | COc1ccc(NC(=O)CSc2nnc(CCn3c4ccccc4c4ccccc43)o2)c([N+](=O)[O-])c1 | 
8 | 81.2 | 66.89 | Cc1cccc(NC(=O)CSc2nnc(CCn3c4ccccc4c4ccccc43)o2)c1 | 
